Tests used:
[1] = system: human foreskin cells (FS11); assay: Dead cells fraction by FACS (PI), normal FS11 cells; format: cell-based; conditions: up to 1000 μM DG and 1 μM compound 0260, alone or in combinations
Experimental: (§1) Florescence assisted cell sorting (FACS) was performed as described in Pasder O, et al. [Pasder O, et al. Oncogene 2006; 25(30):4194-206]. Cells were rinsed twice with cold PBS, and then harvested by treatment with trypsin. Suspended cells were washed twice in 10 ml cold PBS and centrifuged at 500 g for 5 min. In cell cycle analyses, the pellet was resuspended in 200 μl cold PBS and cells were stained in the dark with 200 μl propidium iodide (PI) solution (20 mM Tris, pH 8, 1 mM NaCl, 0.1% (v/v) NP-40, 1.4 mg/ml RNase A, 0.05 mg/ml PI) for 30 min at […]. In experiments to determine the fraction of dead cells in a population of cells, the detergent NP-40 was omitted. The total cellular DNA content was determined using a Becton Dickinson flow cytometer (FACSCalibur). The data were analyzed using Cell Quest Pro software (Becton Dickinson) and ModFit LT software.
(§2) To study the effect of various combinations of Fer and glycolysis inhibitors on cell cycle progression, various concentrations of 0260 and DG alone and in combination were tested in Hep3B liver cancer cells and on human foreskin cells (FS11) as a non-cancer controls.

[2] = system: HCT116 colon cancer cells; assay: Dead cells fraction by FACS (PI), HCT116; format: cell-based; conditions: compounds alone or in combination
Experimental: as §1

[3] = system: Hep3B liver cancer cells; assay: Dead cells fraction by FACS (PI), Hep3B; format: cell-based, human; conditions: compounds alone or in combination
Experimental: as §1, §2

[4] = target: T1, Fer (Homo sapiens, UniProt P16591); assay: in-vivo Fer activity assay: auto-phosphorylation of Fer in HCT116 CC cells (IP, anti-phosphotyrosine western blot); format: cell-based; conditions: serum deprived 24 h with 2 μM 0260, 20 mM H2O2 15 min before harvest
T1 construct: endogenous in cells; host or cells: HCT116 colon carcinoma cells
Experimental: HCT116 CC cells were deprived of serum for 24 h in the presence of 2 μM 0260 or 0.5% DMSO (the solvent). 15 min before harvest cells were treated with 20 mM H2O2— for activation and auto-phosphorylation of Fer. Protein lysates were prepared from cells: starved in the presence of DMSO and treated with H2O2 (1), starved in the presence of 0260 and treated with H2O2 (2), and from untreated cells (3). Fer was immuno-precipitated, resolved in SDS-PAGE and reacted with anti-phosphotyrosine (pY— upper panel) or anti-Fer antibodies (lower panel) in a western blot analysis.
After extraction of cellular proteins, a protein sample of 750-1000 μg was diluted 3fold with TGET buffer (20 mM Tris-HCl (Ph7.5), 1 mM EDTA, 0.1% Triton X100 and 10% Glycerol) with […] and protease inhibitors and incubated with the indicated antibody at a dilution of 1:100 overnight at 4° C. with shaking. At the end of the incubation, 25 μl Protein A/G suspension was added bound to agarose beads. The mixture was shaken for another 90 min at 4° C. The immune complex precipitate was obtained after centrifugation for 20 min at maximum speed and then washed three times in extraction buffer: twice with buffer TGET NaCl 150 mM and once with TGET NaCl 75 mM. The precipitate was suspended in 2× loading buffer. […]

T1 sequence (P16591 whole entry): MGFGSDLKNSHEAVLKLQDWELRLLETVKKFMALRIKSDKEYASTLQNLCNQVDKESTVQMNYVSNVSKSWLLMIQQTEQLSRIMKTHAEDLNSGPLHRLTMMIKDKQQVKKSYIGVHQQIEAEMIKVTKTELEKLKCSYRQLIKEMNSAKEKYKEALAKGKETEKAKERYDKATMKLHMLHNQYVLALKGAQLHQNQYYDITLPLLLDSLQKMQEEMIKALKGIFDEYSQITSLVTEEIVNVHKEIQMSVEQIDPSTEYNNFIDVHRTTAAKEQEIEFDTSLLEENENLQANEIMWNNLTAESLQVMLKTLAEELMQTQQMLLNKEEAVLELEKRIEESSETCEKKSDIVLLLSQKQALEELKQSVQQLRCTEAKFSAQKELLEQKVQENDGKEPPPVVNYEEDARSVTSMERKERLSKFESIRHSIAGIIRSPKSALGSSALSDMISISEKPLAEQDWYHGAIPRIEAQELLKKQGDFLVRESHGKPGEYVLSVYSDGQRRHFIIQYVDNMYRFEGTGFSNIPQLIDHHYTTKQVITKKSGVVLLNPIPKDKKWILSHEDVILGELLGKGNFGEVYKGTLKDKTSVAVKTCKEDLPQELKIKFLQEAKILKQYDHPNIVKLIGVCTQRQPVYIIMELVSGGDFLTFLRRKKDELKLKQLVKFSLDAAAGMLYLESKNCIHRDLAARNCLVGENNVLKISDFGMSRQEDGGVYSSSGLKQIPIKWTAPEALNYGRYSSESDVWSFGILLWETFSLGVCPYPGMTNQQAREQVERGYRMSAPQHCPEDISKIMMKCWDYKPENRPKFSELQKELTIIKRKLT

SMILES | dead cells fraction [1] | dead cells fraction [2] | dead cells fraction [3] | inhibition of Fer auto-phosphorylation [4]
O=CC[C@@H](O)[C@H](O)[C@H](O)CO [DG, 2-deoxyglucose, reference compound] | only minor effects | only minor effect | only minor effect | 
CC(C)c1ccc(-c2cn3nc(N4CCC(CN5CCN(C)CC5)CC4)sc3n2)cc1 [compound 0260, 6-(4-isopropyl-phenyl)-2-{4-[(4-methyl-piperazin-1-yl)methyl]piperidin-1-yl}imidazo[2,1-b][1,3,4]thiadiazole] | only minor effects | only minor effect | only minor effect | efficient inhibition

From US20130072448A1, “Drug Combination Comprising A Glycolysis Inhibitor And A Tyrosine Kinase Inhibitor” (URIFER LTD., priority 2011, published 2013)
